Experimental data taken from patent US20110135571A1, “HYBRID NANOPARTICLES AS ANTI-CANCER THERAPEUTIC AGENTS AND DUAL THERAPEUTIC/IMAGING CONTRAST AGENTS” (priority 2008, published 2011).

Columns and labels:
[1] = test system: MCF-7 cells (breast cancer); experiment: MCF-7 Viability Assays; assay type: cell-based, human
Source text: (§1) Cell Lines All cell lines were purchased from the Tissue Culture Facility of the UNC Lineberger Comprehensive Cancer Center (Chapel Hill, N.C., United States of America) and cultured as per American Type Culture Collection (ATCC; Manassas, Va., United States of America) recommendations. HT29 cells (ATCC# HTB 38) were propagated in McCoy's 5A (Cellgro, Manassas, Va., United States of America) supplemented with 10% fetal bovine serum and 1% penicillin/streptomycin. MCF-7 cells (ATCC# HTB 22) were propagated in MEM Alpha (Cellgro, Manassas, Va., United States of America) supplemented with 10% fetal bovine serum, 1% penicillin/streptomycin, 1% sodium pyruvate, and 10 μg/mL insulin.
(§2) HT-29 viability assays: Angiogenic human colon cancer (HT-29) cells were grown in 96 well plates at 2000 cells/well to 100 μL total volume. After a 24 hour incubation, the media was replaced with 100 μL of drug solution containing 0.5% DMSO and 0.5% phosphate buffered saline (PBS) in media, with drug concentrations varying as indicated. All concentrations were performed in quadruplicate. Cell viability was measured after 72 hours using CellTiter 96 Aqueous One Solution Assay (Promega Corporation, Madison, Wis., United States of America), according to the manufacturer's protocol.
MCF-7 Viability Assays. As a further control, cell viability assays were also performed using MCF-7 cells (breast cancer). MCF-7 cells were assayed under the same conditions as HT-29, and also at 4000 cells/well and 72 hours. Unlike with HT-29, Pt(IV) drugs are active. […] NCP-1′-b was also tested but at 2000 cells/well.

[2] = test system: Angiogenic human colon cancer (HT-29) cells; experiment: HT-29 viability assays; assay type: cell-based; details: HT-29, 2000 cells/well, 72 hours, untargeted particles
Source text: as §1, §2

[3] = MCF-7, 4000 cells/well, 72 hours

IC50 ([1]; MCF-7, 2000 cells/well) [µM]	Compound	IC50 [1, 3] [µM]	cell death on treatment of HT-29 cells [2]
	[NH2][Pt]([NH2])([Cl])([Cl])([O]C(=O)CCC(=O)O)[O]C(=O)CCC(=O)O [DSCP, c,c,t-Pt(NH3)2Cl2(O2CCH2CH2CO2H)2]	11.1	did not lead to any appreciable cell death
2.1	cis-Pt(NH3)2Cl2 [cisplatin]	10.7	
